Here are results for 26 molecules from ChEMBL document CHEMBL4043108, “Identification of galiellalactone-based novel STAT3-selective inhibitors with cytotoxic activities against triple-negative breast cancer cell lines” (Bioorg Med Chem, 2017).

pIC50: −log10 of the molar value. The source made the active and inactive calls. The calls are words filed in the database; no cut-off is given here.

Series [1] concerns BT-549. Put plainly: Cytotoxic activity against human BT549 cells incubated for 24 hrs by MTT assay. The settings on record: BT-549, 24 h. It counts as functional, cell-based.
The subject of series [2] is MDA-MB-231. Put plainly: Cytotoxic activity against human MDA-MB-231 cells incubated for 24 hrs by MTT assay. It counts as functional, cell-based. The settings on record: MDA-MB-231, 24 h.
The subject of series [3] is MDA-MB-468. Description: Cytotoxic activity against human MDA-MB-468 cells incubated for 24 hrs by MTT assay. It counts as functional, cell-based. The settings on record: MDA-MB-468, 24 h.
Series [4] deals with T1, Signal transducer and activator of transcription 1-alpha/beta (Homo sapiens) (UniProt P42224).
T1 sequence (whole entry): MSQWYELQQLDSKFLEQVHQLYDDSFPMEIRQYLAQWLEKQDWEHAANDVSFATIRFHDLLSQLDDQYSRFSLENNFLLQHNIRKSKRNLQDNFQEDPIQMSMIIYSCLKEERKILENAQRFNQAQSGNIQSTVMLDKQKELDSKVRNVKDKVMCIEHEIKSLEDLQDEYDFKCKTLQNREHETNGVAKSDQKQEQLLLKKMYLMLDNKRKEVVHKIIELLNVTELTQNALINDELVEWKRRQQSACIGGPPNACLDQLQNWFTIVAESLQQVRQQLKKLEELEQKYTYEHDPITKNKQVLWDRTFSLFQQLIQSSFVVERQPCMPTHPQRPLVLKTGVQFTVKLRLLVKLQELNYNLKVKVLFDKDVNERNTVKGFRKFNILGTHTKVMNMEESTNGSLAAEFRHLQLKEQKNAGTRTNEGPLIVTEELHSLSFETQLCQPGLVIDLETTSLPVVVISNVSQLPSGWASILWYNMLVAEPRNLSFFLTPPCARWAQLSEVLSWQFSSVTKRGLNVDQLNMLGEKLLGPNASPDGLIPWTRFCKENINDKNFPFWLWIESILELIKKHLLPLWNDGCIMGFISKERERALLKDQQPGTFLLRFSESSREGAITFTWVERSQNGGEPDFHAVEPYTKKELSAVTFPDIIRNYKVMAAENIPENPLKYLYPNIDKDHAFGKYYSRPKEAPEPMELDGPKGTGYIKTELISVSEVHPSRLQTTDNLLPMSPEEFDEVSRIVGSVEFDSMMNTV
Description: Inhibition of STAT1 Tyr701 phosphorylation in human MDA-MB-468 cells at 5 and 10 uM incubated for 4 hrs by Western blot. It counts as cell-based.

Series [5] deals with Signal transducer and activator of transcription 3 (Homo sapiens) (UniProt P40763). Description: Inhibition of STAT3 transcriptional activity in human MDA-MB-468 cells at 5 uM incubated for 24 hrs by STAT3-dependent luciferase reporter assay. It counts as cell-based.
Chain of Signal transducer and activator of transcription 3 (Homo sapiens) (P40763 whole entry): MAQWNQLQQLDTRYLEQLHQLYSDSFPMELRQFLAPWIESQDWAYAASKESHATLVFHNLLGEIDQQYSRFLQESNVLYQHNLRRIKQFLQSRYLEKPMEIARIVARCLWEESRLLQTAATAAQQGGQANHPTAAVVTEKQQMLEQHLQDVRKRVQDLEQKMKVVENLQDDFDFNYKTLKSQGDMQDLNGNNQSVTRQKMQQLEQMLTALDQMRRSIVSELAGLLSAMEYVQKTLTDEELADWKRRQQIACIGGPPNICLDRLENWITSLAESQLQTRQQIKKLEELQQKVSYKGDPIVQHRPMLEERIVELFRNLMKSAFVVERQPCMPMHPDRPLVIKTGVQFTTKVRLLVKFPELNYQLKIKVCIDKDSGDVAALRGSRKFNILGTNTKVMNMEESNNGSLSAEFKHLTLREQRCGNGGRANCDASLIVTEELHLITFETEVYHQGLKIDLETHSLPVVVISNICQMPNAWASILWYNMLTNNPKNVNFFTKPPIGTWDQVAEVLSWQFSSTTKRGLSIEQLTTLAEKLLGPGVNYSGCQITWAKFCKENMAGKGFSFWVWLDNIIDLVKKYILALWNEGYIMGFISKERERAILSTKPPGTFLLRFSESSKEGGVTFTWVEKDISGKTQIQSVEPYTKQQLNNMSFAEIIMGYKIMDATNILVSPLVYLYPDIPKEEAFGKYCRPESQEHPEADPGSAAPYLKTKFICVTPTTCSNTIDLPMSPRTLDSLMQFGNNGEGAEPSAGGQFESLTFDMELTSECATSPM
Series [6] shares this target. Put plainly: Inhibition of STAT3 Tyr705 phosphorylation in human MDA-MB-468 cells at 5 and 10 uM incubated for 4 hrs by Western blot. It counts as cell-based.
In series [7] the test system is MDA-MB-468. Put plainly: Effect on total STAT3 protein level in human MDA-MB-468 cells at 5 and 10 uM incubated for 4 hrs by Western blot. It counts as cell-based. The settings on record: mda-mb-468, 4 h.
Series [8] in a line: Toxicity in human MDA-MB-468 cells assessed as cell viability at 10 uM incubated for 24 hrs by MTT assay (reference value: 100%). It counts as cell-based. The following applies: read-out: Activity.
Series [9] is described as follows: Toxicity in human MDA-MB-468 cells assessed as cell viability at 5 uM incubated for 24 hrs by MTT assay (reference value: 100%). It counts as cell-based. The settings on record: read-out: Activity.
Series [10] has as its target Signal transducer and activator of transcription 3 (Homo sapiens) (UniProt P40763). Description: Inhibition of STAT3 Ser727 phosphorylation in human MDA-MB-468 cells at 5 and 10 uM incubated for 4 hrs by Western blot. It counts as cell-based.
Series [11] has as its system MDA-MB-468. Put plainly: Effect on total STAT1 protein level in human MDA-MB-468 cells at 5 and 10 uM incubated for 4 hrs by Western blot. It counts as cell-based. The settings on record: mda-mb-468, 4 h.

As for `C=C1C(=O)O[C@@H]2CC[C@H](CCl)[C@]12O`, the pIC50 in series [1], in [2] and in series [3] was below 4.30 each time.

In the case of `C=C1C(=O)O[C@@H]2CC[C@H](CBr)[C@]12OC`, the inhibition result in [4] and in [10] was “inactive” in each case. In addition, the inhibition entry in [5] was “Active”. For the same molecule, the inhibition entry in [6] was “Dose-dependent effect”. The Activity entry in series [7] and in [11] was “Non-Toxic” each time. In series [8], the viability at 24 h, 10 µM amounted to 93%. Further, the negative logarithm of the IC50 (pIC50) in series [1] was 5.18; in series [2], 5.06; in [3], 5.10. Also, in [9], the viability at 24 h, 5 µM was determined as 98%.

Regarding `C=C1C(=O)O[C@@H]2CC[C@H](CBr)[C@]12OC(C)=O`, the pIC50 in series [1], in series [2] and in series [3] was below 4.30 each time.

As for `C=C1C(=O)O[C@@H]2CC[C@H](COC)[C@]12O`, the inhibition entry in series [5] is “inactive”. The results for the pIC50 in series [1], in series [2] and in series [3] were 4.42, below 4.30 and below 4.30, respectively.

Regarding `C=C1C(=O)O[C@@H]2CC[C@H](COC)[C@]12OC`, the inhibition result in [5] is “inactive”. For the same molecule, the negative logarithm of the IC50 (pIC50) in series [1], in series [2] and in [3] was below 4.30 in each case.

Take `C=C1C(=O)O[C@@H]2CC[C@H](CI)[C@]12O`: the pIC50 was 4.76 in series [1], 4.59 in series [2] and 4.63 in [3].

In the case of `O=C1O[C@@H]2CC[C@H](CBr)[C@]2(O)[C@]12CO2`, the inhibition entry in series [5] is “inactive”. Moreover, the pIC50 in [1], in series [2] and in [3] was below 4.30 throughout.

With `C=C[C@H](C)[C@@H](O)[C@H]1CC[C@H]2CC(=O)C(=C)[C@]21O`, in series [5], the inhibition result is “inactive”. The pIC50 in series [1] is 4.41; in series [2], below 4.30; in [3], below 4.30.

For `C[C@H]1C=C2C(=O)O[C@@H]3CC[C@H]([C@@H]1O)[C@]23O`, the inhibition entry in series [5] was “inactive”. Besides, the pIC50 in series [1], in series [2] and in series [3] was below 4.30 each time.

For `C=C1C(=O)O[C@@H]2CC[C@H](CO)[C@H]12`, the inhibition entry in [5] is “inactive”. Also, the pIC50 in series [1], in [2] and in series [3] was below 4.30 each time.

Take `C=C1C(=O)O[C@@H]2CC[C@H](CBr)[C@]12O`: the inhibition entry in series [4] and in series [10] was “inactive” each time. Besides, the inhibition result in series [5] is “Active”. The inhibition entry in [6] is “Dose-dependent effect”. Also, the Activity result in series [7] and in series [11] was “Non-Toxic” throughout. In addition, the viability at 24 h, 10 µM in series [8] is 98%. Besides, the pIC50 in series [1] was 5.02; in series [2], 4.92; in series [3], 4.93. In addition, in series [9], the viability at 24 h, 5 µM amounted to 100%.

`O=C1O[C@@H]2CC[C@@H]3[C@@H](O)CC=C1[C@@]32O`: the inhibition entry in series [5] is “inactive”. The pIC50 in series [1], in [2] and in series [3] was below 4.30 in each case.

Take `O=C1O[C@@H]2CC[C@@H]3[C@H](O)CC=C1[C@@]32O`: the inhibition result in series [5] was “inactive”. Further, the pIC50 in [1], in series [2] and in series [3] was below 4.30 throughout.

Turning to `CN[C@@H]1C[C@H]2O[C@@](C)([C@@H]1OC)n1c3ccccc3c3c4c(c5c6ccccc6n2c5c31)C(=O)NC4` [STAUROSPORINE], in series [3], the pIC50 was 6.82.

As for `C[C@@H]1C=C2C(=O)O[C@@H]3CC[C@H]([C@H]1O)[C@]23O`, in [5], the inhibition entry is “inactive”. Besides, the pIC50 in series [1], in [2] and in [3] was below 4.30 throughout.

`C=C1C(=O)O[C@@H]2CC[C@H](CF)[C@]12O`: the pIC50 in series [1] was 5.10; in series [2], 4.63; in series [3], 4.65.

In the case of `C=C1C(=O)O[C@@H]2CC[C@H](CO)[C@]12OC`, in [5], the inhibition entry is “inactive”. Moreover, the pIC50 in [1], in series [2] and in [3] was below 4.30 each time.

With `C=CC[C@H](O)[C@H]1CC[C@H]2OC(=O)C(=C)[C@@]12O`, in series [5], the inhibition result was “inactive”. The pIC50 in [1] was 4.56; in [2], 4.36; in series [3], 4.36.

As to `C[C@@H]1C(=O)O[C@@H]2CC[C@H](CBr)[C@]12O`, the inhibition result in [5] is “inactive”. The pIC50 in [1], in [2] and in series [3] was below 4.30 in each case.

On to `C=CC[C@@H](O)[C@H]1CC[C@H]2OC(=O)C(=C)[C@@]12O`, for which the inhibition entry in [5] was “inactive”. The pIC50 was 4.41 in series [1], below 4.30 in [2] and below 4.30 in series [3].

For the molecule `C=CCC(=O)[C@H]1CC[C@H]2OC(=O)C(=C)[C@@]12O`, in series [5], the inhibition entry is “inactive”. Moreover, the pIC50 in series [1] was 4.60; in [2], 4.32; in series [3], 4.37.

Consider `C=C1C(=O)C[C@@H]2CC[C@H](CO)[C@]12O`, for which the inhibition result in series [5] was “inactive”. Also, the values for the pIC50 in [1], in series [2] and in [3] were 4.39, below 4.30 and below 4.30, respectively.

Regarding `C=C1C(=O)O[C@@H]2CC[C@H](CBr)[C@]12OCC`, the inhibition result in series [5] was “Active”. Moreover, the figures for the pIC50 in [1], in [2] and in [3] were 5.24, 5.04 and 5.11, respectively.

As to `C[C@H]1C=C2C(=O)O[C@@H]3CC[C@H](C1=O)[C@]23O`, the inhibition entry in series [5] is “inactive”. Moreover, the negative-log IC50 (pIC50) in series [1], in [2] and in series [3] was below 4.30 throughout.

Regarding `C=C1C(=O)O[C@@H]2CC[C@H](CBr)[C@H]12`, the pIC50 in [1] was 4.61; in series [2], 4.48; in [3] it was 4.37.

As to `C=C[C@@H](C)[C@H](O)[C@H]1CC[C@H]2CC(=O)C(=C)[C@]21O`, in series [5], the inhibition entry is “inactive”. For the same molecule, the pIC50 in series [1], in [2] and in series [3] was below 4.30 in each case.
